“And” between values parts separate entries of the source, which are not always exact repeats. Equal entries are not always repeated. Where two headings read alike, the source gives them in different places.
How the values were obtained:
SCC-9 cells (OSCC cells) = assay: MTT cell viability assay, SCC-9; type: cell-based, human; conditions: for SI (SCC-9): IC50 normal oral fibroblast / IC50 SCC-9
Description: (§1) Human SCC-4, SCC-9, and SCC-25 cells, derived from a human oral tongue SCC (squamous cell carcinoma), were obtained from ATCC (CRL-1624, CRL-1629, and CRL-1628, respectively) and maintained in 1:1 DMEM/F12 (Dulbecco’s modified Eagle’s medium and Ham’s F12 medium; Gibco (Thermo Fisher, Waltham, MA, USA)) supplemented with 10% (v/v) FBS (fetal bovine serum; Invitrogen, Thermo Fisher, Waltham, MA, USA) and 400 ng/mL hydrocortisone (Sigma-Aldrich Corporation, St. Louis, MO, USA). B16-F10 (melanoma; CRL-6475), HCT-116 (colorectal cancer; CCL-247), and HepG2 (liver cancer; HB-8065), in addition to primary normal human gingival fibroblasts obtained from ATCC (PCS-201-018), were maintained in DMEM supplemented with 10% (v/v) of FBS and were used in a maximum of six passages. Cells were grown in a humidified environment containing 5% CO2 at 37 °C. For all biological assays, compounds and shikonin were solubilized in 100% DMSO (all Sigma-Aldrich Corp.) to a final concentration of 10 mM and lapachol in ethanol. The carboplatin control was prepared in water (Fauldcarbo; Libbs Farmacêutica, São Paulo, SP, Brazil) and was used as a standard anticancer compound.
(§2) The viability of OSCC cell lines and primary human fibroblast cells was assessed using the MTT assay as in ref . Briefly, cells were grown in triplicate in 96-well plates (5 × 10^3 cells/well) until confluence. Then, the medium was removed, fresh medium was added, and the cells were returned to the incubator in the presence of different compounds. DMSO at the same concentration was used as a control for 100% cell viability. After 72 h, cells were incubated with 0.5 mg/mL of MTT reagent (3-(4,5-dimethyl-2-thiazolyl)-2,5-diphenyl-2-H-tetrazolium bromide) (Sigma-Aldrich Corporation, Louis, MO, USA) for 3.5 h. Then, the wells containing the cells were washed with PBS heated to 37 °C, the formazan crystals were dissolved in a solvent solution (DMSO/methanol 1:1 v/v), and the absorbance was read at 560 nm using an EPOCH microplate spectrophotometer (BioTek Instruments, Winooski, VT, USA) with the background absorbance at 670 nm subtracted. Control chemotherapeutics (carboplatin and shikonin) were used.
(§3) Data are presented as means ± SD. IC50 values for the MTT assays were obtained by nonlinear regression using the […] 8.4.3.0 program (Intuitive Software for Science, San Diego, CA, USA) from at least three independent experiments. A dose–response curve (inhibitor) vs response using the least-squares method was used to determine the IC50, SD, and R2 of the data. The selectivity index was calculated as SI = IC50 of the compound in normal oral fibroblast cells/IC50 of the same compound for each oral cancer cell line (SCC-4, SCC-9, and SCC-25) and averaged when indicated.

[1] = tested on: primary normal human gingival fibroblasts; assay: MTT cell viability assay, primary gingival fibroblasts; type: cell-based; conditions: 72 h, read-out: IC50 primary gingival fibroblast
Description: as §1, §2, §3

SCC-25 cells = assay: MTT cell viability assay, SCC-25; type: cell-based, human; conditions: for IC50: read-out: IC50 SCC-25
Description: as §1, §2, §3

SCC-4 cells = assay: MTT cell viability assay, SCC-4; type: cell-based, human; conditions: for IC50: read-out: IC50 SCC-4
Description: as §1, §2, §3

[2] = tested on: OSCC cell lines (SCC-4, SCC-9, and SCC-25); assay: Average selectivity index over three OSCC cell lines (MTT); type: cell-based, human; conditions: average of SI for SCC-4, SCC-9 and SCC-25 vs normal oral fibroblasts
Description: as §1, §2, §3

[3] = tested on: HCT-116 (colorectal cancer); assay: MTT cytotoxicity/selectivity, HCT-116; type: cell-based; conditions: vs normal oral fibroblasts
Description: as §1
as §2, with “DMSO at the same concentration was used as a control for 100% cell viability. After 72 h, cells were incubated with 0.5 mg/mL of MTT reagent (3-(4,5-dimethyl-2-thiazolyl)-2,5-diphenyl-2-H-tetrazolium bromide) (Sigma-Aldrich Corporation, Louis, MO, USA) for 3.5 h.” left out, “Control chemotherapeutics (carboplatin and shikonin) were used.” left out
(§4) Data are presented as means ± SD. […] The selectivity index was calculated as SI = IC50 of the compound in normal oral fibroblast cells/IC50 of the same compound for each oral cancer cell line (SCC-4, SCC-9, and SCC-25) and averaged when indicated.

HepG2 (liver cancer) = assay: MTT cytotoxicity/selectivity, HepG2; type: cell-based; conditions: vs normal oral fibroblasts
Description: as §1
as §2, with “DMSO at the same concentration was used as a control for 100% cell viability. After 72 h, cells were incubated with 0.5 mg/mL of MTT reagent (3-(4,5-dimethyl-2-thiazolyl)-2,5-diphenyl-2-H-tetrazolium bromide) (Sigma-Aldrich Corporation, Louis, MO, USA) for 3.5 h.” left out, “Control chemotherapeutics (carboplatin and shikonin) were used.” left out
as §4

B16-F10 (melanoma) = assay: MTT cytotoxicity/selectivity, B16-F10; type: cell-based; conditions: vs normal oral fibroblasts
Description: as §1
as §2, with “DMSO at the same concentration was used as a control for 100% cell viability. After 72 h, cells were incubated with 0.5 mg/mL of MTT reagent (3-(4,5-dimethyl-2-thiazolyl)-2,5-diphenyl-2-H-tetrazolium bromide) (Sigma-Aldrich Corporation, Louis, MO, USA) for 3.5 h.” left out, “Control chemotherapeutics (carboplatin and shikonin) were used.” left out
as §4

human erythrocytes = assay: Hemolysis assay; type: cell-based; conditions: 500 μM; Triton X-100 positive control
Description: To determine the surfactant power of the substances present in biological membranes, a hemolysis test was carried out with human blood approved by the Research Ethics Committee of the Universidade Federal Fluminense (CAAE: 43134721.4.0000.5626). Erythrocytes were collected for centrifugation at 1500 rpm for 15 min, washed with PBS (phosphate-buffered saline) supplemented with 10 mM glucose, and counted in an automatic cell counter (Thermo Fisher, Waltham, MA, USA). […] In total, 10 μL of PBS was used as a negative control, and 10 μL of PBS with 0.1% Triton x 100 was used as a positive control. Data reading was performed with EPOCH (BioTek Instruments, Winooski, VT, USA) at an absorbance of 540 nm, and statistical data were generated using […] Prism 8.4.3.0 program (Intuitive Software for Science, San Diego, CA, USA).

[4] = tested on: esophageal squamous carcinoma cells; parameters: method as in PMID 31225674; conditions: inhibits RSK2 and induces intrinsic apoptosis in esophageal squamous carcinoma cells; cited from earlier work
[5] = Homo sapiens, SCC-9, 72 h, MTT, read-out: IC50 SCC-9 oral cancer

Compound | IC50 (SCC-9 cells (OSCC cells); [5]) [µM] | SI (SCC-9) (SCC-9 cells (OSCC cells)) | IC50 ([1]; Homo sapiens, Fibroblast, MTT) [µM] | average SI [2] | other results
Cc1ccccc1SC1C2=C(OC(C)(C)C1Sc1ccccc1C)C(=O)c1ccccc1C2=O (centres unmarked) [7b, 2,2-Dimethyl-3,4-bis(o-tolylthio)-3,4-dihydro-2H-benzo[g]chromene-5,10-dione] | 34.8 | 1.5 | 50.9 | – | –
Cc1cccc(SC2C3=C(OC(C)(C)C2Sc2cccc(C)c2)C(=O)c2ccccc2C3=O)c1 (centres unmarked) [7c, 2,2-Dimethyl-3,4-bis(m-tolylthio)-3,4-dihydro-2H-benzo[g]chromene-5,10-dione] | 15.3 | 2.7 | 40.8 | 1.8 | IC50 (SCC-25 cells; Homo sapiens, SCC-25, 72 h, MTT): 31.8 µM; IC50 (SCC-4 cells; Homo sapiens, SCC-4, 72 h, MTT): 30.2 µM
Cc1ccc(SC2C3=C(OC(C)(C)C2Sc2ccc(C)cc2)C(=O)c2ccccc2C3=O)cc1 (centres unmarked) [7d, 2,2-Dimethyl-3,4-bis(p-tolylthio)-3,4-dihydro-2H-benzo[g]chromene-5,10-dione] | 30.9 | 1.9 | 60.1 | – | –
CC1(C)OC2=C(C(=O)c3ccccc3C2=O)C(Sc2ccc(F)cc2)C1Sc1ccc(F)cc1 (centres unmarked) [7f, 3,4-Bis((4-fluorophenyl)thio)-2,2-dimethyl-3,4-dihydro-2H-benzo[g]chromene-5,10-dione] | 35.3 | 1.1 | 40 | – | –
CC1(C)OC2=C(C(=O)c3ccccc3C2=O)C(Sc2ccc(Cl)cc2)C1Sc1ccc(Cl)cc1 (centres unmarked) [7h, 3,4-Bis((4-chlorophenyl)thio)-2,2-dimethyl-3,4-dihydro-2H-benzo[g]chromene-5,10-dione] | 33.3 | 1.3 | 43 | – | –
CC1(C)OC2=C(C(=O)c3ccccc3C2=O)C(Sc2ccc(O)cc2)C1Sc1ccc(O)cc1 (centres unmarked) [7i, 3,4-Bis((4-hydroxyphenyl)thio)-2,2-dimethyl-3,4-dihydro-2H-benzo[g]chromene-5,10-dione] | 17.2 | 1.9 | 32.6 | – | –
N.N.O=C([O-])C1(C(=O)[O-])CCC1.[Pt+2] [Carboplatin, carboplatin, reference compound] | – | 2.6 | – | 3.5 | IC50 (SCC-9 cells (OSCC cells); 72 h, MTT, read-out: IC50 SCC-9 oral cancer): 49.8 µM; IC50 ([1]; MTT): 128 µM; IC50 (SCC-25 cells; 72 h, MTT): 38.3 µM; selective index (SI) SCC-25 (SCC-25 cells; vs normal oral fibroblasts): 3.3; IC50 (SCC-4 cells; 72 h, MTT): 27.7 µM; selective index (SI) SCC-4 (SCC-4 cells; vs normal oral fibroblasts): 4.6; selective index (SI) HCT-116 colon cancer [3]: 2.5; selective index (SI) HepG2 hepatocellular carcinoma (HepG2 (liver cancer)): 7.1; selective index (SI) B16-F10 melanoma (B16-F10 (melanoma)): 5.5; % Hemolysis (Mean ± SD) (human erythrocytes): 1.34 ± 0.10%
CC(C)=CC[C@@H](O)C1=CC(=O)c2c(O)ccc(O)c2C1=O [Shikonin, shikonin, reference compound] | – | 1.0 | – | 2.0 | IC50 (SCC-9 cells (OSCC cells); Homo sapiens, SCC-9, 72 h, read-out: IC50 SCC-9 oral cancer, 72 h, MTT): 2.1 µM; IC50 ([1]; Homo sapiens, Fibroblast): 2.2 µM; IC50 (SCC-25 cells; Homo sapiens, SCC-25, 72 h): 0.6 µM; IC50 (SCC-4 cells; Homo sapiens, SCC-4, 72 h): 1.6 µM
CC(C)=CCC1=C(O)C(=O)c2ccccc2C1=O [lapachol] | – | – | – | – | IC50 [4]: 2000 nM
Triton X-100 | – | – | – | – | % Hemolysis (Mean ± SD) (human erythrocytes): 100% and 99.6 ± 2.51%
